Measurements taken from ChEMBL document CHEMBL3865818, “4,5-Diaryl-3H-1,2-dithiole-3-thiones and related compounds as combretastatin A-4/oltipraz hybrids: Synthesis, molecular modelling and evaluation as antiproliferative agents and inhibitors of tubulin” (Eur J Med Chem, 2016).

Tests used:
[1] = Cell cycle arrest in human KB cells assessed as accumulation at SubG1-phase measured after 12 hrs by propidium iodide staining-based flow cytometry (reference value: 1.23%); type: functional
[2] = Cell cycle arrest in human KB cells assessed as accumulation at G0/G1-phase at 0.2 uM measured after 24 hrs by propidium iodide staining-based flow cytometry (reference value: 48.52%); type: functional
[3] = Cell cycle arrest in human KB cells assessed as accumulation at S-phase measured after 48 hrs by propidium iodide staining-based flow cytometry (reference value: 13.32%); type: functional
[4] = Cell cycle arrest in human KB cells assessed as accumulation at S-phase at 0.1 uM measured after 36 hrs by propidium iodide staining-based flow cytometry (reference value: 16.51%); type: functional
[5] = Cell cycle arrest in human KB cells assessed as accumulation at G0/G1-phase at 0.1 uM measured after 48 hrs by propidium iodide staining-based flow cytometry (reference value: 58.26%); type: functional
[6] = Cell cycle arrest in human KB cells assessed as accumulation at SubG1-phase at 0.1 uM measured after 24 hrs by propidium iodide staining-based flow cytometry (reference value: 0.76%); type: functional
[7] = Antiproliferative activity against human SGC7901 cells measured after 72 hrs by MTT assay; type: functional, cell-based; conditions: SGC-7901, 72 h
[8] = Cell cycle arrest in human KB cells assessed as accumulation at G2/M-phase at 0.2 uM measured after 36 hrs by propidium iodide staining-based flow cytometry (reference value: 27.34%); type: functional
[9] = Cell cycle arrest in human KB cells assessed as accumulation at G2/M-phase measured after 60 hrs by propidium iodide staining-based flow cytometry (reference value: 18.9%); type: functional
[10] = Cell cycle arrest in human KB cells assessed as accumulation at G2/M-phase at 0.05 uM measured after 48 hrs by propidium iodide staining-based flow cytometry (reference value: 23.36%); type: functional
[11] = Cell cycle arrest in human KB cells assessed as accumulation at G0/G1-phase at 0.05 uM measured after 12 hrs by propidium iodide staining-based flow cytometry (reference value: 48.26%); type: functional
[12] = Cell cycle arrest in human KB cells assessed as accumulation at SubG1-phase measured after 36 hrs by propidium iodide staining-based flow cytometry (reference value: 0.63%); type: functional
[13] = Cell cycle arrest in human KB cells assessed as accumulation at S-phase at 0.1 uM measured after 12 hrs by propidium iodide staining-based flow cytometry (reference value: 15.5%); type: functional
[14] = Cell cycle arrest in human KB cells assessed as accumulation at SubG1-phase at 0.2 uM measured after 48 hrs by propidium iodide staining-based flow cytometry (reference value: 0.61%); type: functional

SMILES: COc1ccc(-c2ssc(=O)c2-c2cc(OC)c(OC)c(OC)c2)cc1N
- Activity [1]: 1.85%
- Activity [2]: 6.24%
- Activity [3]: 12.6%
- Activity [4]: 14.5%
- Activity [5]: 15.5%
- Activity [6]: 16%
- IC50 [7]: 172 nM
- Activity [8]: 34.7%
- Activity [9]: 15.6%
- Activity [10]: 18.5%
- Activity [11]: 43%
- Activity [12]: 25.8%
- Activity [13]: 21.6%
- Activity [14]: 49.9%
